Experimental data as given in US20220330549A1, “USE OF N-BENZYLBENZAMIDE-BASED COMPOUND AS HERBICIDE” (Northwest A&F University, priority 2020, published 2022).

Experiments:
Format in all cases: in vivo
Barnyard grass [1] = assay: Field test for weed control in a corn field; details: 150 g a.i./ha, 30 days after treatment
Summary of the method: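 Herbicidal activity against barnyard grass was assessed in corn field plots of 20 m^2, with four replicates per treatment. Compounds were applied as water-diluted 10% emulsifiable concentrates at 150 g(a.i.)/ha at the 2-5 leaf corn stage, with 25% mesotrione oil dispersion as the reference agent. Damage was scored on a 1-9 scale against untreated blank plots.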

Convolvulus arvensis = assay: Field test for weed control in a corn field; details: 150 g a.i./ha, after treatment
Summary of the method: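 Post-emergence herbicidal activity on Convolvulus arvensis was scored in a corn field on a 1-9 scale, based on symptoms and damage severity. Each level corresponds to the weed remaining as a percentage of the blank control area. Sprays of 10% emulsifiable concentrate at 150 g(a.i.)/ha went on at the corn 2–5 leaf stage, with four replicates of 20 m^2 per treatment.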

Acalypha australis = assay: Field test for weed control in a corn field; details: 150 g a.i./ha, after treatment
Summary of the method: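 Herbicidal activity against weeds was assessed in corn plots by the GB/T 17980.42-2000 method. Corn at the 2–5 leaf stage received water sprays of 10% emulsifiable concentrates at 150 g(a.i.)/ha, four repeats per treatment over 20 m^2. A 25% mesotrione oil dispersion was the reference. Damage symptoms and severity were rated on levels 1-9 relative to weeds in the blank control area.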

Solanum nigrum = assay: Field test for weed control in a corn field; details: 150 g a.i./ha, 30 days after treatment
Summary of the method: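 In a corn field trial based on GB/T 17980.42-2000, 10% emulsifiable concentrates diluted in water were sprayed at 150 g(a.i.)/ha at the 2 to 5 leaf stage of corn. Each treatment used 20 m^2 plots and was repeated 4 times, with 25% mesotrione oil dispersion as the reference agent. Solanum nigrum damage was scored on a 1-9 scale against blank control plots.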

Chenopodium album = assay: Field test for weed control in a corn field; details: 150 g a.i./ha, after treatment
Summary of the method: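 Field weed-control testing in corn, run per GB/T 17980.42-2000, scored Chenopodium album on a 1-9 level scale, where each level matches a percentage range of weed remaining relative to the blank control area. Sprays of 10% emulsifiable concentrates in water delivered 150 g(a.i.)/ha at the corn 2-leaf to 5-leaf stage on 20 m^2 plots, four replicates each. Mesotrione 25% oil dispersion served as reference.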

goosegrass = assay: Field test for weed control in a corn field; details: 150 g a.i./ha, after treatment
Summary of the method: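 In this field trial in corn, run per GB/T 17980.42-2000, test agents prepared as 10% emulsifiable concentrates were applied in water as sprays at 150 g(a.i.)/ha at the 2- to 5-leaf corn stage. Each treatment covered 20 m^2 and was repeated 4 times. Goosegrass control was scored 1-9 relative to weed remaining in blank control areas.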

green bristlegrass [2] = assay: Field test for weed control in a corn field; details: 150 g a.i./ha, after treatment
Summary of the method: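 Herbicidal activity against green bristlegrass was assessed in corn field plots of 20 m^2 per GB/T 17980.42-2000. Test agents, formulated as 10% emulsifiable concentrates, were applied in water at 150 g(a.i.)/ha at the corn 2 leaves to 5 leaves stage, repeated 4 times. A 25% mesotrione oil dispersion served as the control agent, and weed damage was rated on levels 1-9.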

nutgrass flatsedge = assay: Field test for weed control in a corn field; details: 150 g a.i./ha, after treatment
Summary of the method: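 Herbicidal effect on nutgrass flatsedge was measured in a field planted with corn, using the GB/T 17980.42-2000 method. Emulsifiable concentrates (10%) in water were sprayed at 150 g(a.i.)/ha during the 2-leaf to 5-leaf corn stage, on 20 m^2 plots repeated 4 times. 25% mesotrione oil dispersion was the control agent. Activity was scored from 1 to 9 by weed remaining relative to blank control plots.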

Amaranthus retroflexus [3] = assay: Field test for weed control in a corn field; details: 150 g a.i./ha, 30 days after treatment
Summary of the method: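 Post-emergence control of Amaranthus retroflexus was assessed in corn plots using the GB/T 17980.42-2000 method. Emulsifiable concentrates (10%) in water were applied by spraying at the 2- to 5-leaf crop stage on 20 m^2 plots, four replicates each, alongside a mesotrione 25% oil dispersion reference. Herbicidal activity was scored on 1-9 levels by weed amount relative to blank control areas.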

Digitaria sanguinalis [4] = assay: Field test for weed control in a corn field; details: 150 g a.i./ha, after treatment
Summary of the method: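 Field trial in a corn field following GB/T 17980.42-2000. Test compounds were formulated as 10% emulsifiable concentrates, diluted in water and sprayed post-emergence at 150 g(a.i.)/ha when corn had 2 to 5 leaves, with 4 replicates on 20 m^2 plots. Control of Digitaria sanguinalis was scored on a 1-9 scale based on weed damage relative to the untreated blank area.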

Portulaca oleracea = assay: Field test for weed control in a corn field; details: 150 g a.i./ha, after treatment
Summary of the method: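 Post-emergence weed control was evaluated in a corn field by the GB/T 17980.42-2000 method. Emulsifiable concentrates (10%) in water were applied as sprays at 150 g(a.i.)/ha at the 2-5 leaf corn stage, in four replicate 20 m^2 plots. A 25% mesotrione oil dispersion served as control agent. Effects were graded 1-9 relative to weed remaining in blank control areas.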

Amaranthus retroflexus [5] = assay: Herbicidal activity test for indoor pre-emergence soil treatment; set-up: key: 1-9 levels; higher = more weed remaining vs blank control; details: 150 g a.i./ha, visual inspection 21 days after treatment
Summary of the method: (§1)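 Pre-emergence test following NY/T 1155.3-2006: weed seeds were sown in moistened neutral sandy loam (≤2% organic matter) and covered with 0.5–2.0 cm of soil. After 24 h, the soil was sprayed with a 10% EC diluted in water at 150 g(a.i.)/ha. Damage was scored visually on a 1–9 scale at 21 days.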

Digitaria sanguinalis [6] = assay: as above; set-up: key: 1-9 levels; higher = more weed remaining vs blank control; details: 150 g a.i./ha, visual inspection 21 days after treatment
Summary of the method: as §1

Humulus scandens [7] = assay: as above; details: 150 g a.i./ha, visual inspection 21 days after treatment
Summary of the method: as §1

Barnyard grass [8] = assay: as above; set-up: key: level 1-9; higher = more weed remaining vs blank control; details: 150 g a.i./ha, visual inspection 21 days after treatment
Summary of the method: as §1

Piemarker [9] = assay: as above; set-up: key: level 1-9; higher = more weed remaining vs blank control; details: 150 g a.i./ha, visual inspection 21 days after treatment
Summary of the method: as §1

green bristlegrass [10] = assay: as above; set-up: key: level 1-9; higher = more weed remaining vs blank control; details: 150 g a.i./ha, visual inspection 21 days after treatment
Summary of the method: as §1

Broadleaf weed = assay: Post-emergence herbicidal activity test in a paddy field; set-up: key: level scale; higher level = more weed left vs blank control; details: 150 g a.i./ha (penoxsulam control 250 g(a.i.)/h)
Summary of the method: (§2)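 Efficacy was visually estimated 15 and 30 days after spraying, grading weed coverage relative to an untreated neighbouring plot (level 2 = 0 to 2.5%, level 9 = 67.6 to 100%). Treatments were 150 g(a.i.)/ha from 10% emulsifiable concentrates applied at the 4-5 leaf rice stage, four repeats of 50 m^2 each.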

Gramineae = assay: as above; set-up: key: level scale; higher level = more weed left vs blank control; details: 150 g a.i./ha (penoxsulam control 250 g(a.i.)/h)
Summary of the method: as §2

Cyperaceae = assay: as above; set-up: key: level scale; higher level = more weed left vs blank control; details: 150 g a.i./ha (penoxsulam control 250 g(a.i.)/h)
Summary of the method: as §2

Barnyard grass [11] = assay: Herbicidal activity test for indoor post-emergence spraying on stems and leaves; set-up: key: grade level by weed remaining vs blank control, e.g. 5 = 10.1-15%; details: 150 g a.i./ha, visual inspection 21 days after treatment
Summary of the method: (§3)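 Greenhouse-grown weeds, post-emergence foliar spray (NY/T 1155.4-2006 method); visual scoring at 21 d post-treatment as levels vs. untreated blank control (e.g., level 5 = 10.1–15%, level 8 = 35.1–67.5% of control weed).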

Piemarker [12] = assay: as above; set-up: key: grade level by weed remaining vs blank control, e.g. 5 = 10.1-15%; details: 150 g a.i./ha, visual inspection 21 days after treatment
Summary of the method: as §3

Humulus scandens [13] = assay: as above; set-up: key: grade level by weed remaining vs blank control, e.g. 5 = 10.1-15%; details: 150 g a.i./ha, visual inspection 21 days after treatment
Summary of the method: as §3

green bristlegrass [14] = assay: as above; set-up: key: grade level by weed remaining vs blank control, e.g. 5 = 10.1-15%; details: 150 g a.i./ha, visual inspection 21 days after treatment
Summary of the method: as §3

Amaranthus retroflexus [15] = assay: as above; set-up: key: grade level by weed remaining vs blank control, e.g. 5 = 10.1-15%; details: 150 g a.i./ha, visual inspection 21 days after treatment
Summary of the method: as §3

Digitaria sanguinalis [16] = assay: as above; set-up: key: grade level by weed remaining vs blank control, e.g. 5 = 10.1-15%; details: 150 g a.i./ha, visual inspection 21 days after treatment
Summary of the method: as §3

SMILES	Post-emergence weed control effect, Barnyard grass (Barnyard grass [1])	Post-emergence weed control effect, Convolvulus arvensis (Convolvulus arvensis)	Post-emergence weed control effect, Acalypha australis (Acalypha australis)	Post-emergence weed control effect, Solanum nigrum (Solanum nigrum)	Post-emergence weed control effect, Chenopodium album (Chenopodium album)	Post-emergence weed control effect, Goose grass (goosegrass)	Post-emergence weed control effect, Green bristlegrass (green bristlegrass [2])	Post-emergence weed control effect, Nutgrass flatsedge (nutgrass flatsedge)	Post-emergence weed control effect, Amaranthus retroflexus (Amaranthus retroflexus [3])	Post-emergence weed control effect, Digitaria sanguinalis (Digitaria sanguinalis [4])	Post-emergence weed control effect, Portulaca oleracea (Portulaca oleracea)	Herbicidal Activity Amaranthus retroflexus (Amaranthus retroflexus [5])	Herbicidal Activity Digitaria sanguinalis (Digitaria sanguinalis [6])	Herbicidal Activity Humulus scandens (Humulus scandens [7])	Herbicidal Activity Barnyard grass (Barnyard grass [8])	Herbicidal Activity Piemarker (Piemarker [9])	Herbicidal Activity Green bristlegrass (green bristlegrass [10])	Herbicidal activity 15 days after treatment Broadleaf weed (Broadleaf weed)	Herbicidal activity 30 days after treatment Broadleaf weed (Broadleaf weed)	Herbicidal activity 15 days after treatment Gramineae (Gramineae)	also measured
COc1ccc(OC)c(C(=O)NCc2ccc(F)cc2)c1 [Compound A23]	2 (equivalent to 0 to 2.5% of the weed in the blank control area)	1	2 (equivalent to 0 to 2.5% of the weed in the blank control area)	2 (equivalent to 0 to 2.5% of the weed in the blank control area)	1	2 (equivalent to 0 to 2.5% of the weed in the blank control area)	1	3 (equivalent to 2.6 to 5% of the weed in the blank control area)	1	2 (equivalent to 0 to 2.5% of the weed in the blank control area)	1	2 (equivalent to 0 to 2.5% of the weed in the blank control area)	1	4 (equivalent to 5.1 to 10% of the weed in the blank control area)	1	2 (equivalent to 0 to 2.5% of the weed in the blank control area)	1	1	1	1	Herbicidal activity 30 days after treatment Gramineae (Gramineae): 1; Herbicidal activity 15 days after treatment Cyperaceae (Cyperaceae): 1; Herbicidal activity 30 days after treatment Cyperaceae (Cyperaceae): 1; Herbicidal Activity Barnyard grass (Barnyard grass [11]): 1; Herbicidal Activity Piemarker (Piemarker [12]): 1; Herbicidal Activity Humulus scandens (Humulus scandens [13]): 1; Herbicidal Activity Green bristlegrass (green bristlegrass [14]): 1; Herbicidal Activity Amaranthus retroflexus (Amaranthus retroflexus [15]): 1; Herbicidal Activity Digitaria sanguinalis (Digitaria sanguinalis [16]): 1
COc1ccc(OC)c(C(=O)NCc2cc(F)cc(F)c2)c1 [Compound A24]	1	1	3 (equivalent to 2.6 to 5% of the weed in the blank control area)	2 (equivalent to 0 to 2.5% of the weed in the blank control area)	1	2 (equivalent to 0 to 2.5% of the weed in the blank control area)	1	3 (equivalent to 2.6 to 5% of the weed in the blank control area)	1	2 (equivalent to 0 to 2.5% of the weed in the blank control area)	1	1	1	1	1	1	1	1	1	1	Herbicidal activity 30 days after treatment Gramineae (Gramineae): 1; Herbicidal activity 15 days after treatment Cyperaceae (Cyperaceae): 1; Herbicidal activity 30 days after treatment Cyperaceae (Cyperaceae): 1; Herbicidal Activity Barnyard grass (Barnyard grass [11]): 1; Herbicidal Activity Piemarker (Piemarker [12]): 1; Herbicidal Activity Humulus scandens (Humulus scandens [13]): 1; Herbicidal Activity Green bristlegrass (green bristlegrass [14]): 1; Herbicidal Activity Amaranthus retroflexus (Amaranthus retroflexus [15]): 1; Herbicidal Activity Digitaria sanguinalis (Digitaria sanguinalis [16]): 1
